Data: patent publication US8383822B2, “Substituted oxazolidinones and their use” (Bayer Intellectual Property GmbH, priority 2007, dated 2013)

What was measured:
factor Xa = target: T1, factor Xa (Homo sapiens, UniProt P00742); assay: biochemical; conditions: factor Xa inhibition in citrate plasma (Octapharma), factor X activated by Russel viper venom, ChromozymX substrate, read at about 12 min
T1 construct: tissue Octapharma; host or cells: citrate plasma
Method: a.4) Determination of the Factor Xa-inhibitory Activity of the Potential Inhibitors in Plasma Samples
To determine the inhibition of factor Xa in plasma samples, the factor X present in plasma is activated by a protease from rattlesnake toxin. The factor Xa activity or its inhibition by potential inhibitors is then measured by addition of a chromogenic substrate.
Various concentrations of the substances to be tested are dissolved in dimethyl sulphoxide and mixed with an aqueous refludan solution (10 μg/ml). In clear 96-well plates having a flat bottom, 30 μl of citrate plasma (Octapharma) are mixed with 10 μl of the substance dilution.

thrombin = thrombin (Homo sapiens, UniProt P00734); assay: Thrombin-inhibitory activity in plasma samples (ecarin, fluorogenic thrombin substrate); format: biochemical; conditions: thrombin inhibition in citrate plasma (Octapharma), ecarin-stimulated, read at about 12 min
Method: a.5) Determination of the Thrombin-inhibitory Activity of the Potential Inhibitors in Plasma Samples
Various concentrations of the substances to be tested are dissolved in dimethyl sulphoxide and diluted with water.

T1 sequence (P00742 235-488 limits assumed): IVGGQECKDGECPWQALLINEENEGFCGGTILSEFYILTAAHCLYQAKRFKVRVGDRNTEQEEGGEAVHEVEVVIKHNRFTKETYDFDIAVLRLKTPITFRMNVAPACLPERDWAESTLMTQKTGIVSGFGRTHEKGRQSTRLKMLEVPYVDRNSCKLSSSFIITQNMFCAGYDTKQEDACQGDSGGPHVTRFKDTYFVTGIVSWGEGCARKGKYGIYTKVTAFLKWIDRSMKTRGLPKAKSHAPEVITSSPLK
T1 sequence (P00742 41-179 limits assumed): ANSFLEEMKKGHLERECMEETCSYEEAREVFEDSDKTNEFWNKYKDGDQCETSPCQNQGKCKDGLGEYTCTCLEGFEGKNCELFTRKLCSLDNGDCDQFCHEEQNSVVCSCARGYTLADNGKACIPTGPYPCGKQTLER

Row | Structure (SMILES) | IC50 (factor Xa) [nM] | IC50 (thrombin) [nM]
1 | COc1cc(N2C[C@H](CNC(=O)c3ccc(Cl)s3)OC2=O)ccc1-n1cccc(CCN[C@H]2CC[C@H](O)CC2)c1=O [Example 6, 5-Chloro-N-{[(5S)-3-{4-[3-{2-[(trans-4-hydroxycyclohexyl)amino]ethyl}-2-oxopyridin-1(2H)-yl]-3-methoxyphenyl}-2-oxo-1,3-oxazolidin-5-yl]methyl}thiophene-2-carboxamide] | 31 | 143
2 | COCc1cc(N2C[C@H](CNC(=O)c3ccc(Cl)s3)OC2=O)ccc1-n1cccc(CCNCCO)c1=O [Example 9, 5-Chloro-N-{[(5S)-3-{4-[3-{2-[(2-hydroxyethyl)amino]ethyl}-2-oxopyridin-1(2H)-yl]-3-(methoxy-methyl)phenyl}-2-oxo-1,3-oxazolidin-5-yl]methyl}thiophene-2-carboxamide] | 11 | 10
3 | COCc1cc(N2C[C@H](CNC(=O)c3ccc(Cl)s3)OC2=O)ccc1-n1cccc(CCN[C@H]2CC[C@H](O)CC2)c1=O [Example 10, 5-Chloro-N-{[(5S)-3-{4-[3-{2-[(trans-4-hydroxycyclohexyl)amino]ethyl}-2-oxopyridin-1(2H)-yl]-3-(methoxymethyl)phenyl}-2-oxo-1,3-oxazolidin-5-yl]methyl}thiophene-2-carboxamide] | 15 | 24
4 | COCc1cc(N2C[C@H](CNC(=O)c3ccc(Cl)s3)OC2=O)ccc1-n1cccc(CCN2CCN(C)CC2)c1=O [Example 13] | 17 | 16
5 | COCc1cc(N2C[C@H](CNC(=O)c3ccc(Cl)s3)OC2=O)ccc1-n1cccc(CCNCCCO)c1=O [Example 16] | 18 | 10
6 | Cc1cc(N2C[C@H](CNC(=O)c3ccc(Cl)s3)OC2=O)ccc1-n1cccc(OCCN[C@H]2CC[C@H](O)CC2)c1=O [Example 21, 5-Chloro-N-{[(5S)-3-{4-[3-{2-[(trans-4-hydroxycyclohexyl)amino]ethoxy}-2-oxopyridin-1(2H)-yl]-3-methylphenyl}-2-oxo-1,3-oxazolidin-5-yl]methyl}thiophene-2-carboxamide] | 11 | 34
7 | CCCc1cc(N2C[C@H](CNC(=O)c3ccc(Cl)s3)OC2=O)ccc1-n1cccc(OCCNCCO)c1=O [Example 36, 5-Chloro-N-{[(5S)-3-{4-[3-{2-[(2-hydroxyethyl)amino]ethoxy}-2-oxopyridin-1(2H)-yl]-3-propyl-phenyl}-2-oxo-1,3-oxazolidin-5-yl]methyl}thiophene-2-carboxamide] | 29 | 36
8 | Cc1cc(N2C[C@H](CNC(=O)c3ccc(Cl)s3)OC2=O)cc(C)c1-n1cccc(CCNCCO)c1=O [Example 37, 5-Chloro-N-{[(5S)-3-{4-[3-{2-[(2-hydroxyethyl)amino]ethyl}-2-oxopyridin-1(2H)-yl]-3,5-dimethylphenyl}-2-oxo-1,3-oxazolidin-5-yl]methyl}thiophene-2-carboxamide] | 29 | 15
